# Tests used:
# CYP2C19 = CYP2C19 (Homo sapiens (Human), UniProt P33261); test: CYP inhibition test (CYP2C19); assay type: in vitro ADME; conditions: pooled human hepatic microsome, mephenytoin 4′-hydroxylation
# Protocol: (§1) After the centrifugation at 3000 rpm for 15 minutes, resorufin (CYP1A2 metabolite) in the supernatant was quantified by a fluorescent multilabel counter and tributamide hydroxide (CYP2CP metabolite), mephenyloin 4′ hydroxide (CYP2C19 metabolite), […] (CYP2D6 metabolite), and terfenadine alcohol (CYP3A4 metabolite) were quantified by LC/MS/MS. Addition of only DMSO being a solvent dissolving a drug to a reaction system was adopted as a control (100%), remaining activity (%) was calculated at each concentration of a test drug added as the solution and […] was calculated by reverse presumption by a logistic model using a concentration and an inhibition rate.
# CYP3A4 = CYP3A4 (Homo sapiens (Human), UniProt P08684); test: CYP inhibition test (CYP3A4); assay type: in vitro ADME; conditions: pooled human hepatic microsome, terfenedine hydroxylation
# Protocol: as §1
# CYP2C9 = CYP2C9 (Homo sapiens (Human), UniProt P11712); test: CYP inhibition test (CYP2C9); assay type: in vitro ADME; conditions: pooled human hepatic microsome, tolbutamide methyl-hydroxylation
# Protocol: as §1
# Recombinant human BACE-1 = Recombinant human BACE-1 (Homo sapiens (Human), UniProt P56817); test: Assay of β-secretase-inhibiting activity; conditions: Recombinant human BACE-1 7.4 nM, substrate peptide 18 nM, pH 5.0, 30° C. for 3 hours
# CYP1A2 = CYP1A2 (Homo sapiens (Human), UniProt P05177); test: CYP inhibition test (CYP1A2); assay type: in vitro ADME; conditions: pooled human hepatic microsome, 7-ethoxyresorufin O-deethylation
# Protocol: as §1
# CYP2D6 = CYP2D6 (Homo sapiens (Human), UniProt P10635); test: CYP inhibition test (CYP2D6); assay type: in vitro ADME; conditions: pooled human hepatic microsome, dextromethorphan O-demethylation
# Protocol: as §1
# [1] = target: human ether-a-go-go related gene (hERG) channel (Homo sapiens (Human), UniProt Q12809); test: hERG test; assay type: cell-based; conditions: HEK293 cells expressing hERG channel, whole cell patch clamp, concentration not given
# Source text: For the purpose of assessing risk of an electrocardiogram QT interval prolongation, effects on delayed rectifier K+ current (IKr), which plays an important role in the ventricular repolarization process, was studied using HEK293 cells expressing human ether-a-go-go related gene (hERG) channel.
# After a cell was retained at a membrane potential of −80 mV by whole cell patch clamp method using an automated patch clamp system (PatchXpress 7000A, Axon Instruments Inc.), IKr induced by depolarization pulse stimulation at +50 mV for 2 seconds and, further, repolarization pulse stimulation at −50 mV for 2 seconds was recorded. […] From the recording IKr, an absolute value of the tail peak current was measured based on the current value at the resting membrane potential using an analysis software (DataXpress ver. 1, Molecular Devices Corporation). Further, the % inhibition relative to the tail peak current before application of the test substance was calculated, and compared with the vehicle-applied group (0.1% dimethyl sulfoxide solution) to assess influence of the test substance on IKr.
# human ether-a-go-go related gene (hERG) channel, sequence (Q12809 whole entry): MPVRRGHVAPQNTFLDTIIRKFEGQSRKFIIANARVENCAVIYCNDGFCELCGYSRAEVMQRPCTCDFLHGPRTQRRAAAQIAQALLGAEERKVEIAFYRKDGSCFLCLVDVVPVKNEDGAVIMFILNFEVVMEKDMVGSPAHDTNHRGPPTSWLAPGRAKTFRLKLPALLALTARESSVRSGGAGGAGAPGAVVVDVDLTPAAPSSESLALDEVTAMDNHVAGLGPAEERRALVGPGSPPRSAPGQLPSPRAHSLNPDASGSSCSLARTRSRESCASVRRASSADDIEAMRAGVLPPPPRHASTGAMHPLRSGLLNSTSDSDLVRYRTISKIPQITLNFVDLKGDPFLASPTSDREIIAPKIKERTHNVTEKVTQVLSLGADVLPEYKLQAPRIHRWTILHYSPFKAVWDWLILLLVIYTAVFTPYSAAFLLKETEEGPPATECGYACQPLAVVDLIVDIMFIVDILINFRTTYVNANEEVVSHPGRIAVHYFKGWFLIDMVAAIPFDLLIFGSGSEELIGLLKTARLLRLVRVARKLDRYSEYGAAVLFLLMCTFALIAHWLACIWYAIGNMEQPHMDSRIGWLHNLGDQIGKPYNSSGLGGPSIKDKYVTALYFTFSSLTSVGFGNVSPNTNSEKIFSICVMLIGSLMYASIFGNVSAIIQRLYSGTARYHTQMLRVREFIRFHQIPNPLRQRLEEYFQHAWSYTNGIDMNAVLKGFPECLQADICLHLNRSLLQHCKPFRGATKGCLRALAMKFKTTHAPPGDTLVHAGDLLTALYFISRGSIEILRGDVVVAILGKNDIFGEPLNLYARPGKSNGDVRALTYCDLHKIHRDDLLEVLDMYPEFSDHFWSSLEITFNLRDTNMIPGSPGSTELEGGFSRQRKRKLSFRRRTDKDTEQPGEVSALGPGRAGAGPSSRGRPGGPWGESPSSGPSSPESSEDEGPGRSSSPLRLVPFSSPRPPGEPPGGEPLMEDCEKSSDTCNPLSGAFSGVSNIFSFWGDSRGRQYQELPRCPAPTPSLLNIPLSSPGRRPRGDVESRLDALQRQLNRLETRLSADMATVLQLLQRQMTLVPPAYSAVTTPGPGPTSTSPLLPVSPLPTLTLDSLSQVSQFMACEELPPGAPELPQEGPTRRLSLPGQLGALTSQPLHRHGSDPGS
# CYP3A4, sequence (P08684 whole entry): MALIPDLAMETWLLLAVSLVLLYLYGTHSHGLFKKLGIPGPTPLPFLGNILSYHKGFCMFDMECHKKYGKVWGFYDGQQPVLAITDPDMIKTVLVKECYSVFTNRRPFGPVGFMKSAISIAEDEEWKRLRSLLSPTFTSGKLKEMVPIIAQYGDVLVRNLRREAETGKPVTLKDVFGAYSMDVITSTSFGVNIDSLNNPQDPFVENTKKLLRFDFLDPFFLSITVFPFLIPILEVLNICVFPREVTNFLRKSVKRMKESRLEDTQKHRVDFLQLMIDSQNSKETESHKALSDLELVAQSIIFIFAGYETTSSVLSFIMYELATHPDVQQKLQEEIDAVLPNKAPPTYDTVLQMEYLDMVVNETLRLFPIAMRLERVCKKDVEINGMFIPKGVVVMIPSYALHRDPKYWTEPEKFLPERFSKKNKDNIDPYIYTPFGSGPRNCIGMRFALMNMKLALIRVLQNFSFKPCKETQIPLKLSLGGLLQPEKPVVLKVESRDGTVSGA
# CYP2D6, sequence (P10635 whole entry): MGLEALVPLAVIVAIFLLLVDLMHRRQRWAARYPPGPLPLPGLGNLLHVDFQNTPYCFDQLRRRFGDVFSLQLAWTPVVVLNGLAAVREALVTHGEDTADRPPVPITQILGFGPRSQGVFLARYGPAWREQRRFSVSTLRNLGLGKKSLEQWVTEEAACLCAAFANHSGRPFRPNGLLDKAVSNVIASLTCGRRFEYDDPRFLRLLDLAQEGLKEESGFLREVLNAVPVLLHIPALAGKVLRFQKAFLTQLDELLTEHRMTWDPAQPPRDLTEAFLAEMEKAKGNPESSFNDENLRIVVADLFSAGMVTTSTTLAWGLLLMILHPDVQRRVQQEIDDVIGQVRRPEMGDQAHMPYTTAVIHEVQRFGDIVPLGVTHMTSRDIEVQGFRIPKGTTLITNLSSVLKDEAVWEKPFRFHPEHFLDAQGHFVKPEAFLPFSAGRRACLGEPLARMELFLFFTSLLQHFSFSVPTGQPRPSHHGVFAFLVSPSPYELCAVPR
# CYP2C9, sequence (P11712 whole entry): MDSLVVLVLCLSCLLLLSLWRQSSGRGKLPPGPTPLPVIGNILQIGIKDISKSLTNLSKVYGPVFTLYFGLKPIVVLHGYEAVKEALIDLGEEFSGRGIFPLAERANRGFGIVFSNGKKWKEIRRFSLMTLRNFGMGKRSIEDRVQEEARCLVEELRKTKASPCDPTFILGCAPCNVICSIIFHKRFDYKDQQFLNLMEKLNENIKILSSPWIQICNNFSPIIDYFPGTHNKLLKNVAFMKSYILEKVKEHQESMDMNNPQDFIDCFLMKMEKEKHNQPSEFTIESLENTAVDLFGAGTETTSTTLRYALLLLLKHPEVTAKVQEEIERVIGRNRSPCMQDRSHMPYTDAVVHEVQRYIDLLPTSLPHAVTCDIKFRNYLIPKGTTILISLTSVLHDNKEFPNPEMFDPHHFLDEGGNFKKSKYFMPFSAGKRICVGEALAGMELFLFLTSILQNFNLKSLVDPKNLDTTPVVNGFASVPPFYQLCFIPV
# Recombinant human BACE-1, sequence (P56817 46-501): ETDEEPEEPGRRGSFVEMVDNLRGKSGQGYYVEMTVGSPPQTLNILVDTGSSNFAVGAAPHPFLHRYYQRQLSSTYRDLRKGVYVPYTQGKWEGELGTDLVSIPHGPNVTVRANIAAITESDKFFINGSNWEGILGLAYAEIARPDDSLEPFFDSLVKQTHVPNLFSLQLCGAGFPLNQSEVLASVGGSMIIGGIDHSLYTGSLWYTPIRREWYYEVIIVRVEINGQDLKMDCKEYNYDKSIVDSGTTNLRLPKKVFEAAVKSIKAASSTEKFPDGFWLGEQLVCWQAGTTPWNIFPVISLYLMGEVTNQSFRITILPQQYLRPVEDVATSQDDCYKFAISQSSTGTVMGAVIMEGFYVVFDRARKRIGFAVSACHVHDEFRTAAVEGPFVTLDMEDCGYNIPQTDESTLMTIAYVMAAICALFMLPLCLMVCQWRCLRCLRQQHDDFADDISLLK
# CYP2C19, sequence (P33261 whole entry): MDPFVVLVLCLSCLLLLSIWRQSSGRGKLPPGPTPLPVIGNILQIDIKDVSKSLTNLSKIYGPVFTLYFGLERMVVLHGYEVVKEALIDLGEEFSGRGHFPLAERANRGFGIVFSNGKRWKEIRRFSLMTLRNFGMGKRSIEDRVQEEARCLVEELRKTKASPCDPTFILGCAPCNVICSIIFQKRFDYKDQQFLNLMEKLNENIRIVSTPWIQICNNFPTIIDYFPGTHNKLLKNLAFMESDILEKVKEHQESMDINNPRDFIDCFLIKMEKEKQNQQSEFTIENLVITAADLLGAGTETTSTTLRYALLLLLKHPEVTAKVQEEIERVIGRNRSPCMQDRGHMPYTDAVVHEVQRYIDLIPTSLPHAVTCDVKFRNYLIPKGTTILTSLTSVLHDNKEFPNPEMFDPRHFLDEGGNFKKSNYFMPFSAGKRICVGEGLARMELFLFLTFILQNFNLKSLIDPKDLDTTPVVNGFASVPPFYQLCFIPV
# CYP1A2, sequence (P05177 whole entry): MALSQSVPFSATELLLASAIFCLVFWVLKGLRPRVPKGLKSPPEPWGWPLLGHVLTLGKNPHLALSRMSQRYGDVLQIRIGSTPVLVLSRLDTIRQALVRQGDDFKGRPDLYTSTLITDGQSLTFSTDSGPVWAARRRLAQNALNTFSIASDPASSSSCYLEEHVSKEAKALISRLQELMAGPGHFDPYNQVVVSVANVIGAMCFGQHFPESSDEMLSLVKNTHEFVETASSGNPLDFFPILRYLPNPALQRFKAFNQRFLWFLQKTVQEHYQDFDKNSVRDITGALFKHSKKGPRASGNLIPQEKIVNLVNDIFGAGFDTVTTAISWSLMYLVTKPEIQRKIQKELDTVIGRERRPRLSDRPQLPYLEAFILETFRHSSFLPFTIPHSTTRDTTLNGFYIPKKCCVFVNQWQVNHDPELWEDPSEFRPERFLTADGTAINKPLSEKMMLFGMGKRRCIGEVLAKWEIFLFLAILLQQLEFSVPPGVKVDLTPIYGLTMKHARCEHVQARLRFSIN
Compound,IC50 (CYP2C19) [µM],IC50 (CYP3A4) [µM],IC50 (CYP2C9) [µM],IC50 (Recombinant human BACE-1) [µM],IC50 (CYP1A2) [µM],IC50 (CYP2D6) [µM],% inhibition of IKr tail peak current [1] [%]
Cc1cc(C(=O)Nc2ccc(F)c([C@]3(C)C=CSC(N)=N3)c2)n(C)c1 [Compound 35],> 20,> 20,> 20,0.096,> 20,> 20,
CNC(=O)c1ccc(-c2ccc(F)c([C@]3(C)C=CSC(N)=N3)c2)cn1 [Compound 92],,,,,,,7.9
C=C1C[C@@](C)(c2cc(NC(=O)c3cnc(OC)cn3)cnc2C)N=C(N)S1 [Compound 102],,,,,,,2.3

# Reference: US9273053B2, “Sulfur-containing heterocyclic derivative having Beta secretase inhibitory activity” (Shionogi & Co., Ltd., priority 2008, dated 2016)
